# From patent US7098215B2, “Nitrogenous compounds and antiviral drugs containing the same” (Kureha Chemical Industry Co., Ltd., priority 2000, dated 2006)
# What was measured:
# [1] = system: HIV-1IIIB infected MT-4 cells; test: Anti-HIV activity: protection of HIV-1IIIB infected MT-4 cells, MTT method; type: cell-based; details: MOI 0.01, culture for 5 days, concentration inhibiting 50% of cytotoxicity due to HIV infection
# Method: HIV-1IIIB infected MT-4 cells were added to 96-well microtiter plates (3.0×10^4/well, MOI (Multiplicity of infection): 0.01), together with test compounds at different concentrations immediately after the infection. After culture for 5 days in a carbon dioxide incubator at 37° C., the number of surviving cells was counted by MTT (tetrazolium) method (Pawels et al., J. Virol. Methods, 20, 309-321, 1988).
# HIV-1 (NL4-3) = test: Antiviral effect in SCID mice transplanted with human PBMCs and infected with HIV-1 (NL4-3), HIV-1 p24 by ELISA; type: in vivo; details: SCID mice with human PBMCs, virus NL4-3, 0.1 ml/2 mM solution/mouse intraperitoneally, 12 days after infection
# Method: The effect of the antiviral drug on SCID mice (immunodeficiency mice) was examined.
# TMβ-1 (rat anti-mouse IL-2Rβ monoclonal antibody) was intraperitoneally administered to C.B-17 SCID mice (8 weeks-old, female, provided by CLEA Japan, Inc.) in the amount of 1 mg/mouse to exterminate NK cells. After 2 days, 1.5×10^6 human PBMCs were transplanted in the spleen together with human rIL-4 (0.2 μg/mouse). On the same day, the compound No. 86 (0.1 ml/2 mM solution/mouse) or a medium (0.1 ml) (control) was intraperitoneally administered. After 1 day, HIV-1 (NL4-3) (0.2 ml/1×10^4 TCID50/ml) was intraperitoneally administered to cause virus infection. The same amount of the compound No. 86 (or the medium) was intraperitoneally administered on each of 4 consecutive days thereafter. rIL-4 (0.2 μg) was also intraperitoneally administered 4 days after infection. 12 days after infection, blood plasma and abdominal cavity washing solutions were collected to measure the amount of HIV-1 P^24 using an ELISA kit.
# ICR male mice = test: Acute toxicity in ICR mice, intraperitoneal administration; type: in vivo; details: 3 per group, 50 mg/kg intraperitoneally, twice a day, for four days, number of dead animals after 5 days
# Method: Acute toxicity of the antiviral drug was examined. Three groups of 7 week-old, ICR male mice, each group consisting of 3 mice, were bred for one week. The compounds prepared in the Examples, dissolved in a physiological saline solution or distilled water, were intraperitoneally administered at a dose of 50 mg/kg, twice a day, for four days. After 5 days, the number of dead animals was examined.
compound,measurement,setting,value
"C[C@H](NC(=O)[C@H](CCCN=C(N)N)NC(=O)c1ccc(CNCc2ccccn2)cc1)c1cccc2ccccc12 [Compound No. 86, N^α-(4-(N-2-picolylaminomethyl)benzoyl)-L-arginine (1′S)-1′-(1-naphthyl)ethylamide]",EC50,[1],43 nM
same,p24 level Abdominal cavity washing solution,HIV-1 (NL4-3),<5 pg/mL
same,p24 level Plasma,HIV-1 (NL4-3),<5 pg/mL
same,Dead mouse,ICR male mice,0/3
